Data as given in a compilation of properties of binary mixtures (doi:10.1016/j.molliq.2012.02.004).

Assay: xn = mol fraction of the nth substance listed
Conditions: 101 kPa

## CC(C)O + CCCCCC[n+]1ccn(C)c1.F[B-](F)(F)F
293.15 K, x1 = 1
  viscosity: 2.36 mPa·s
303.15 K, x1 = 1
  viscosity: 1.77 mPa·s
313.15 K, x1 = 1
  viscosity: 1.33 mPa·s
323.15 K, x1 = 1
  viscosity: 1.01 mPa·s

## CCCCCC[n+]1ccn(C)c1.F[B-](F)(F)F + CC(C)O
293.15 K, x2 = 0
  viscosity: 230 mPa·s
293.15 K, x2 = 0.1493
  viscosity: 113 mPa·s
293.15 K, x2 = 0.2289
  viscosity: 78 mPa·s
293.15 K, x2 = 0.2992
  viscosity: 57.1 mPa·s
293.15 K, x2 = 0.3752
  viscosity: 41 mPa·s
293.15 K, x2 = 0.4942
  viscosity: 24.9 mPa·s
293.15 K, x2 = 0.5845
  viscosity: 16.8 mPa·s
293.15 K, x2 = 0.7067
  viscosity: 10.05 mPa·s
293.15 K, x2 = 0.762
  viscosity: 7.82 mPa·s
303.15 K, x2 = 0
  viscosity: 130 mPa·s
303.15 K, x2 = 0.2289
  viscosity: 48.2 mPa·s
303.15 K, x2 = 0.2992
  viscosity: 36.1 mPa·s
303.15 K, x2 = 0.4942
  viscosity: 16.9 mPa·s
303.15 K, x2 = 0.9165
  viscosity: 2.65 mPa·s
313.15 K, x2 = 0
  viscosity: 78 mPa·s
313.15 K, x2 = 0.1493
  viscosity: 42.6 mPa·s
313.15 K, x2 = 0.2289
  viscosity: 31.7 mPa·s
313.15 K, x2 = 0.3752
  viscosity: 18.8 mPa·s
313.15 K, x2 = 0.4942
  viscosity: 12.2 mPa·s
313.15 K, x2 = 0.5845
  viscosity: 8.53 mPa·s
313.15 K, x2 = 0.7067
  viscosity: 5.15 mPa·s
313.15 K, x2 = 0.9165
  viscosity: 1.96 mPa·s
323.15 K, x2 = 0.1493
  viscosity: 28.1 mPa·s
323.15 K, x2 = 0.3752
  viscosity: 14.6 mPa·s
323.15 K, x2 = 0.4942
  viscosity: 9.3 mPa·s
323.15 K, x2 = 0.5845
  viscosity: 6.62 mPa·s
323.15 K, x2 = 0.7067
  viscosity: 3.95 mPa·s
323.15 K, x2 = 0.762
  viscosity: 3.04 mPa·s
323.15 K, x2 = 0.9165
  viscosity: 1.5 mPa·s
333.15 K, x2 = 0.2289
  viscosity: 16.3 mPa·s
333.15 K, x2 = 0.2992
  viscosity: 13.2 mPa·s
333.15 K, x2 = 0.4942
  viscosity: 7.04 mPa·s
333.15 K, x2 = 0.5845
  viscosity: 5.06 mPa·s
333.15 K, x2 = 0.7067
  viscosity: 3.05 mPa·s
333.15 K, x2 = 0.9165
  viscosity: 1.02 mPa·s
